Source: patent EP4818179A1, “PREPARATION FOR AND USE OF PYRIMIDO-THIOPYRANDIONE INHIBITOR FOR KRAS G12C MUTANT PROTEIN” (Ya Therapeutics Inc, priority 2024, dated 2025)

Each compound was assayed on H358 (KRAS G12C mutant) cells (assay: Tumor cell proliferation inhibition experiment (Cell Titer-Glo luminescent cell viability assay)). Conditions: Homo sapiens, NCI-H358, 72 h, read-out: NCI-H538 IC50(nm).
Method: H358 (KRAS G12C mutant) cells were digested, centrifuged, and resuspended. Cell density was determined using a Scepter automated cell counter. The cells were diluted to a solution containing 44,000 cells per milliliter. The adjusted cell solution was added to 90 µL per well in a 96-well culture plate. The 96-well plate was placed in a 37°C, 5% CO2 incubator. After culturing the cells for 24 hours, different concentrations of the test compound were added. The cells were then cultured with the compound for 72 hours in the presence of 10% fetal bovine serum. The ATP content was measured using the Cell Titer-Glo luminescent cell viability assay kit (see manufacturer's instructions for details) to assess cell growth inhibition. In short, 30 µL of Cell Titer-Glo reagent was added to each well, and the plate was shaken for 10 minutes to induce cell lysis. The fluorescence signal was detected and recorded using a Fluoroskan Ascent FL (Thermo). The maximum signal value was obtained from cells treated with dimethyl sulfoxide for 72 hours. Minimum signal value was obtained from a single culture medium (zero cell count). Inhibition rate % = (maximum signal value - minimum signal value) / (maximum signal value - minimum signal value × 100%). Data was processed using GraphPadprism 5 software. IC50 values were calculated by fitting an S-shaped dose-response curve.

IC50 [nM] | Structure (SMILES)
< 10 | C=CC(=O)N1CCN(c2nc(OC[C@@]34CCCN3C[C@H](F)C4)nc3c2CS(=O)(=O)C(c2nc(N)cc(C)c2C(F)(F)F)C3)C[C@@H]1CC#N (stereo partly drawn) [Compound 7, 2-((2S)-4-(7-(6-amino-4-methyl-3-(trifluoromethyl)pyridin-2-yl)-2-(((2R,7AS)-2-fluorotetrahydro-1H-pyrrolazin-7a(5H)-yl)methoxy)-6,6-dioxo-7,8-dihydro-5H-thiaran[4,3-d]pyrimidin-4-yl)-1-(acryloyl)pyrazin-2-yl)acetonitrile]
< 10 | C=CC(=O)N1CCN(c2nc(OC[C@@]34CCCN3C[C@H](F)C4)nc3c2CS(=O)(=O)[C@H](c2nc(N)cc(C)c2C(F)(F)F)C3)C[C@@H]1CC#N [Compound 7A, 2-((2S)-4-((7S)-7-(6-amino-4-methyl-3-(trifluoromethyl)pyridin-2-yl)-2-(((2R,7AS)-2-fluorotetrahydro-1H-pyrrolazin-7a(5H)-yl)methoxy)-6,6-dioxo-7,8-dihydro-5H-thiaran[4,3-d]pyrimidin-4-yl)-1-(acryloyl)pyrazin-2-yl)acetonitrile]
< 10 | C=CC(=O)N1CCN(c2nc(OC[C@@]34CCCN3C[C@H](F)C4)nc3c2CS(=O)(=O)[C@@H](c2nc(N)cc(C)c2C(F)(F)F)C3)C[C@@H]1CC#N [Compound 7B, 2-((2S)-4-((7R)-7-(6-amino-4-methyl-3-(trifluoromethyl)pyridin-2-yl)-2-(((2R,7AS)-2-fluorotetrahydro-1H-pyrrolazin-7a(5H)-yl)methoxy)-6,6-dioxo-7,8-dihydro-5H-thiaran[4,3-d]pyrimidin-4-yl)-1-(acryloyl)pyrazin-2-yl)acetonitrile]

Further lines, the compound ahead of its results:

Structure (SMILES) | IC50 [nM]
C=C(F)C(=O)N1CCN(c2nc(OC[C@@]34CCCN3C[C@H](F)C4)nc3c2CS(=O)(=O)C(c2nc(N)cc(C)c2C(F)(F)F)C3)C[C@@H]1CC#N (stereo partly drawn) [Compound 8, 2-((2S)-4-(7-(6-amino-4-methyl-3-(trifluoromethyl)pyridin-2-yl)-2-(((2R,7AS)-2-fluorotetrahydro-1H-pyrrolazin-7a(5H)-yl)methoxy)-6,6-dioxo-7,8-dihydro-5H-thiaran[4,3-d]pyrimidin-4-yl)-1-(2-fluoroacryloyl)pyrazin-2-yl)acetonitrile] | < 10
C=C(F)C(=O)N1CCN(c2nc(OC[C@@]34CCCN3C[C@H](F)C4)nc3c2CS(=O)(=O)[C@H](c2nc(N)cc(C)c2C(F)(F)F)C3)C[C@@H]1CC#N [Compound 8A, 2-((2S)-4-((7S)-7-(6-amino-4-methyl-3-(trifluoromethyl)pyridin-2-yl)-2-(((2R,7AS)-2-fluorotetrahydro-1H-pyrrolazin-7a(5H)-yl)methoxy)-6,6-dioxo-7,8-dihydro-5H-thiaran[4,3-d]pyrimidin-4-yl)-1-(2-fluoroacryloyl)pyrazin-2-yl)acetonitrile] | < 10
C=C(F)C(=O)N1CCN(c2nc(OC[C@@]34CCCN3C[C@H](F)C4)nc3c2CS(=O)(=O)[C@@H](c2nc(N)cc(C)c2C(F)(F)F)C3)C[C@@H]1CC#N [Compound 8B, 2-((2S)-4-((7R)-7-(6-amino-4-methyl-3-(trifluoromethyl)pyridin-2-yl)-2-(((2R,7AS)-2-fluorotetrahydro-1H-pyrrolazin-7a(5H)-yl)methoxy)-6,6-dioxo-7,8-dihydro-5H-thiaran[4,3-d]pyrimidin-4-yl)-1-(2-fluoroacryloyl)pyrazin-2-yl)acetonitrile] | < 10
